This note sets out measurements from ChEMBL document CHEMBL1142585, “Two new cytotoxic linderazulenes from a deep-sea gorgonian of the genus Paramuricea” (J Nat Prod, 2005).

For assay [1], the system named is P388. The experiment in a line: Cytotoxicity against mouse P388 cells by MTT assay. The format is functional, cell-based.
Assay [2] has as its system Candida albicans. Nature of the assay: Antifungal activity against Candida albicans at 50 ug/mL. It is filed as functional, organism-based.
Assay [3] relates to PANC-1. The experiment in a line: Cytotoxicity against human PANC-1 cells by MTT assay. The format is functional, cell-based.

Converted amounts (≈) assume the structure as drawn. The source made the active and inactive calls. The calls are words filed in the database; no cut-off is given here.

For orientation: IC50 means the concentration needed to halve the response being measured. Low readings indicate greater potency in that assay, high ones weaker potency in that assay. `Cc1cc2occ(C)c2cc2c(C=O)ccc1-2` returned an IC50 in assay [1] of 15.6 µg/mL (≈ 69.6 µM). Further, the outcome in assay [2] was inactive.
Regarding `Cc1cc2occ(C)c2cc2c(C)ccc1-2` [LINDERAZULENE], the 50% inhibitory concentration (IC50) in assay [1] worked out at 18.8 µg/mL (≈ 89.4 µM). Further, the outcome in assay [2] was inactive.
Consider `COC(=O)c1ccc2c(C)cc3occ(C)c3cc1-2`, for which the IC50 in assay [1] turned out to be 2.7 µg/mL (≈ 10.6 µM); in assay [3], 18.7 µg/mL (≈ 73.5 µM). Besides, the result in assay [2] was inactive.
